Test results reported in ChEMBL document CHEMBL4665868, “Study on the interaction between 4-(1H-indol-3-yl)-2-(p-tolyl)quinazoline-3-oxide and human serum albumin” (Bioorg Med Chem, 2020).

How the values were obtained:
Type in all cases: ADME
Albumin [1] = target: T1, Albumin (Homo sapiens, UniProt P02768); experiment: Binding affinity to HSA […] site assessed as quenching in presence of digitoxin at 0 to 100 uM after 5 mins by fluorescence based site competition assay; details: isolated protein
T1 sequence (P02768 whole entry): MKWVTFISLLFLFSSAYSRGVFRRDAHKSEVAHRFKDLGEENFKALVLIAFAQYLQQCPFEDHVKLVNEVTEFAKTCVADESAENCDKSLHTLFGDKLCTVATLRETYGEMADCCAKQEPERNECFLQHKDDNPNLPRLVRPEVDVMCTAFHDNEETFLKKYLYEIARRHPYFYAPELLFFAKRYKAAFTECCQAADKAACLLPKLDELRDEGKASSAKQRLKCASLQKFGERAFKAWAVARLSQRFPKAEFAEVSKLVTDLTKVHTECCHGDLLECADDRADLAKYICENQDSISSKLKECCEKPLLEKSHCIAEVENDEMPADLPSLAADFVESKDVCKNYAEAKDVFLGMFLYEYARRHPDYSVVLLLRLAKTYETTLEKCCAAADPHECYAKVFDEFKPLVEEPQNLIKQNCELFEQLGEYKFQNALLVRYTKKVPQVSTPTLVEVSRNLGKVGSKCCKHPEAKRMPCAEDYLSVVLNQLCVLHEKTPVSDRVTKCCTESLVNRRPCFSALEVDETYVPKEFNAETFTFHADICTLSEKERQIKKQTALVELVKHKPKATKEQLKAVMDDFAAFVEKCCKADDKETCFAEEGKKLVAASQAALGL

Albumin [2] = target: T1, Albumin; experiment: Binding affinity to HSA […] site assessed as quenching in presence of ibuprofen at 0 to 100 uM after 5 mins by fluorescence based site competition assay; details: isolated protein
Albumin [3] = target: T1, Albumin; experiment: Binding affinity to HSA […] site assessed as quenching in presence of warfarin at 0 to 100 uM after 5 mins by fluorescence based site competition assay; details: isolated protein, dose 0-100 µM
Albumin [4] = target: T1, Albumin; experiment: Binding affinity to HSA assessed as decrease in fluorescence intensity at 100 uM at by fluorescence spectrophotometer assay; parameters: scale not given: the % may be the effect or the level left; details: isolated protein
Albumin [5] = target: T1, Albumin; experiment: Binding affinity to HSA assessed as causing the change of the microenvironment of tyrosine residue by measuring red shift at 0 to 100 uM after 5 mins by fluorescence based Synchronous fluorescence spectroscopy; details: isolated protein, dose 0-100 µM
Albumin [6] = target: T1, Albumin; experiment: Binding affinity to HSA assessed as change in entropy at 298 K by Van't Hoff plot analysis; details: isolated protein
Albumin [7] = target: T1, Albumin; experiment: Binding affinity to HSA assessed as change in enthalpy at 298 K by Van't Hoff plot analysis; details: isolated protein
Albumin [8] = target: T1, Albumin; experiment: Binding affinity to HSA assessed as binding constant at 303 K by fluorescence spectrophotometer assay; details: isolated protein
Albumin [9] = target: T1, Albumin; experiment: Binding affinity to HSA assessed as binding constant at 300 K by fluorescence spectrophotometer assay; details: isolated protein
Albumin [10] = target: T1, Albumin; experiment: Binding affinity to HSA assessed as quenching constant at 303 K by fluorescence spectrophotometer assay; details: isolated protein
Albumin [11] = target: T1, Albumin; experiment: Binding affinity to HSA assessed as quenching constant at 300 K by fluorescence spectrophotometer assay; details: isolated protein
Albumin [12] = target: T1, Albumin; experiment: Binding affinity to HSA assessed as Stern-Volmer quenching constant at 303 K by fluorescence spectrophotometer assay; details: isolated protein
Albumin [13] = target: T1, Albumin; experiment: Binding affinity to HSA assessed as quenching constant at 298 K by fluorescence spectrophotometer assay; details: isolated protein
Albumin [14] = target: T1, Albumin; experiment: Binding affinity to HSA assessed as Stern-Volmer quenching constant at 300 K by fluorescence spectrophotometer assay; details: isolated protein
Albumin [15] = target: T1, Albumin; experiment: Binding affinity to HSA assessed as Stern-Volmer quenching constant at 298 K by fluorescence spectrophotometer assay; details: isolated protein
Albumin [16] = target: T1, Albumin; experiment: Binding affinity to HSA assessed as binding constant at 298 K by fluorescence spectrophotometer assay; details: isolated protein

For `Cc1ccc(-c2nc3ccccc3c(-c3c[nH]c4ccccc34)[n+]2[O-])cc1`, the Activity (Albumin [1]) was “Active”, the Activity (Albumin [2]) was “Active” and the Activity (Albumin [3]) was “Not Active”. For the same compound, the Activity (Albumin [4]) was 49.2%, the Activity (Albumin [5]) was 9 nm and the deltaS (Albumin [6]) was 436 J/mol·K. For the same compound, the deltaH (Albumin [7]) was 33.227 kcal/mol, the K (Albumin [8]) was 1.03 10^4L/mol and the K (Albumin [9]) was 1.7 10^4L/mol. The Kq (Albumin [10]) was 1.33 10^12L/mol.s, the Kq (Albumin [11]) was 1.39 10^12L/mol.s and the KSV (Albumin [12]) was 1.33 10^4L/mol. For the same compound, the Kq (Albumin [13]) was 1.4 10^12L/mol.s, the KSV (Albumin [14]) was 1.39 10^4L/mol and the KSV (Albumin [15]) was 1.4 10^4L/mol. For the same compound, the K (Albumin [16]) was 2.47 10^4L/mol.
